For 33 compounds, IC50 results are on record in patent US10189842B2 (Agency for Science, Technology and Research, priority 2013, dated 2019).

The term IC50 denotes the concentration needed to halve the response being measured.

The test system of the assay is HEK293-STF3A cells. Nature of the assay: STF3A assay (luciferase reporter). The following applies: Homo sapiens, 24 h, 1 day of treatment. The format is cell-based, Human. The gist of the method: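 HEK293 cells carrying the STF reporter and expressing Wnt3A, seeded 2×10^4 per well overnight, then treated 1 day with compound at final 50 μM to 1.5 nM. Luciferase activity read by luminescence after Steady-Glo reagent, 10 min at room temperature.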
In general terms: In a reporter assay the amount or activity of a reporter protein is the signal.

In turn, `Cc1cc2n(n1)CCCN2C(=O)CCC(=O)Nc1cc(-c2cccc(Cl)c2)nn1C` [Compound 21, N-(3-(3-chlorophenyl)-1-methyl-1H-pyrazol-5-yl)-4-(2-methyl-6,7-dihydropyrazolo[1,5-a]pyrimidin-4(5H)-yl)-4-oxobutanamide] returned an IC50 above 10000 nM.

As for `Cc1cc2n(n1)CC(C)CN2C(=O)CCC(=O)Nc1ccc(-c2cccnc2)nn1` (stereo not drawn) [Compound 141, 4-(2,6-dimethyl-6,7-dihydropyrazolo[1,5-a]pyrimidin-4(5H)-yl)-4-oxo-N-(6-(pyridin-3-yl)pyridazin-3-yl)butanamide], the IC50 was below 100 nM.

Consider `CC(=O)Nc1cccc(-c2ccc(NC(=O)CCC(=O)N3CCCn4nc(C)cc43)cc2)c1` [Compound 74, N-(3′-acetamido-[1,1′-biphenyl]-4-yl)-4-(2-methyl-6,7-dihydropyrazolo[1,5-a]pyrimidin-4(5H)-yl)-4-oxobutanamide], for which the IC50 is below 5000 nM.

In turn, `Cc1cc2n(n1)CCCN2C(=O)CCC(=O)Nc1cc(-c2cc(Cl)ccn2)no1` [Compound 16, N-(3-(4-chloropyridin-2-yl)isoxazol-5-yl)-4-(2-methyl-6,7-dihydropyrazolo[1,5-a]pyrimidin-4(5H)-yl)-4-oxobutanamide] came in with an IC50 above 10000 nM.

Compound `Cc1cc2n(n1)CCCN2C(=O)CCC(=O)Nc1ccc(-c2cnco2)cc1` [Compound 24, 4-(2-methyl-6,7-dihydropyrazolo[1,5-a]pyrimidin-4(5H)-yl)-N-(4-(oxazol-5-yl)phenyl)-4-oxobutanamide] returned an IC50 below 5000 nM.

For the compound `Cc1cc2n(n1)CC(C)CN2C(=O)CCC(=O)Nc1ccc(-c2ccc(F)cn2)cn1` (stereo not drawn) [Compound 164, 4-(2,6-dimethyl-6,7-dihydropyrazolo[1,5-a]pyrimidin-4(5H)-yl)-N-(5-fluoro-[2,3′-bipyridin]-6′-yl)-4-oxobutanamide], the IC50 was below 1000 nM.

As to `Cc1cc2n(n1)CCCN2C(=O)CCC(=O)Nc1ccc(-c2ccccc2)c(C)c1` [Compound 54, 4-(2-methyl-6,7-dihydropyrazolo[1,5-a]pyrimidin-4(5H)-yl)-N-(2-methyl-[1,1′-biphenyl]-4-yl)-4-oxobutanamide], the IC50 is below 100 nM.

Regarding `Cc1cc2n(n1)CCCN2C(=O)CCC(=O)Nc1ccc(-c2nccs2)cn1` [Compound 26, 4-(2-methyl-6,7-dihydropyrazolo[1,5-a]pyrimidin-4(5H)-yl)-4-oxo-N-(5-(thiazol-2-yl)pyridin-2-yl)butanamide], the IC50 was below 100 nM.

Compound `Cc1cc2n(n1)CCCN2C(=O)CCC(=O)Nc1ccc(N2CCN(C(=O)OC(C)(C)C)CC2)cc1` [Compound 76, tert-butyl 4-(4-(4-(2-methyl-6,7-dihydropyrazolo[1,5-a]pyrimidin-4(5H)-yl)-4-oxobutanamido)phenyl)piperazine-1-carboxylate] yielded an IC50 below 100 nM.

The compound `Cc1cccc(-c2cnc(NC(=O)CCC(=O)N3CCCn4nc(C)cc43)cn2)c1` [Compound 126, 4-(2-methyl-6,7-dihydropyrazolo[1,5-a]pyrimidin-4(5H)-yl)-4-oxo-N-(5-(m-tolyl)pyrazin-2-yl)butanamide] showed an IC50 below 100 nM.

`Cc1cc2n(n1)CCCN2C(=O)CCC(=O)Nc1cc(-c2ccc(Cl)cn2)no1` [Compound 17, N-(3-(5-chloropyridin-2-yl)isoxazol-5-yl)-4-(2-methyl-6,7-dihydropyrazolo[1,5-a]pyrimidin-4(5H)-yl)-4-oxobutanamide] came in with a half-inhibitory concentration (IC50) above 10000 nM.

The compound `Cc1cc2n(n1)CCCN2C(=O)CCC(=O)Nc1ccc(-c2cccnc2)nc1` [Compound 48, N-([2,3′-bipyridin]-5-yl)-4-(2-methyl-6,7-dihydropyrazolo[1,5-a]pyrimidin-4(5H)-yl)-4-oxobutanamide] returned an IC50 below 100 nM.

Compound `Cc1cc2n(n1)CCCN2C(=O)CC(C)C(=O)Nc1ccc(-c2ccccc2)nn1` (stereo not drawn) [Compound 146, 2-methyl-4-(2-methyl-6,7-dihydropyrazolo[1,5-a]pyrimidin-4(5H)-yl)-4-oxo-N-(6-phenylpyridazin-3-yl)butanamide] showed an IC50 below 100 nM.

The compound `Cc1cncc(-c2ccc(NC(=O)CCC(=O)N3CC(C)Cn4nc(C)cc43)nc2)c1` (stereo not drawn) [Compound 142, 4-(2,6-dimethyl-6,7-dihydropyrazolo[1,5-a]pyrimidin-4(5H)-yl)-N-(5′-methyl-[3,3′-bipyridin]-6-yl)-4-oxobutanamide] showed an IC50 below 100 nM.

With `Cc1cc2n(n1)CCCN2C(=O)CCC(=O)Nc1cc(C)c(-c2cccnc2)cn1` [Compound 119, N-(4-methyl-3,3′-bipyridin-6-yl)-4-(2-methyl-6,7-dihydropyrazolo[1,5-a]pyrimidin-4(5H)-yl)-4-oxobutanamide], the IC50 is below 5000 nM.

For `Cc1cc2n(n1)CCCN2C(=O)CCC(=O)Nc1ccc(-c2ccccc2)cn1` [Compound 44, 4-(2-methyl-6,7-dihydropyrazolo[1,5-a]pyrimidin-4(5H)-yl)-4-oxo-N-(5-phenylpyridin-2-yl)butanamide], the IC50 was below 100 nM.

With `Cc1cccc(-c2ccc(NC(=O)CCC(=O)N3CCCn4nc(C)cc43)nc2)n1` [Compound 96, 4-(2-methyl-6,7-dihydropyrazolo[1,5-a]pyrimidin-4(5H)-yl)-N-(6-methyl-[2,3′-bipyridin]-6′-yl)-4-oxobutanamide], the IC50 is below 100 nM.

As to `Cc1cc2n(n1)CCCN2C(=O)CCC(=O)Nc1ccc(-c2ccccc2C)cc1` [Compound 58, 4-(2-methyl-6,7-dihydropyrazolo[1,5-a]pyrimidin-4(5H)-yl)-N-(2′-methyl-[1,1′-biphenyl]-4-yl)-4-oxobutanamide], the IC50 is below 100 nM.

As for `Cc1cc2n(n1)CCCN2C(=O)CCC(=O)Nc1ccc(-c2cccc(F)c2)nc1` [Compound 84, N-(6-(3-fluorophenyl)pyridin-3-yl)-4-(2-methyl-6,7-dihydropyrazolo[1,5-a]pyrimidin-4(5H)-yl)-4-oxobutanamide], the IC50 is below 100 nM.

Consider `Cc1cc2n(n1)CC(C)CN2C(=O)CCC(=O)Nc1ccc(-c2ccccn2)cn1` (stereo not drawn) [Compound 171, N-([2,3′-bipyridin]-6′-yl)-4-(2,6-dimethyl-6,7-dihydropyrazolo[1,5-a]pyrimidin-4(5H)-yl)-4-oxobutanamide], for which the IC50 was below 100 nM.

Take `Cc1cc2n(n1)CCCN2C(=O)CCC(=O)Nc1ccc(-c2cccc(F)c2)cn1` [Compound 89, N-(5-(3-fluorophenyl)pyridin-2-yl)-4-(2-methyl-6,7-dihydropyrazolo[1,5-a]pyrimidin-4(5H)-yl)-4-oxobutanamide]: the IC50 was below 100 nM.

Take `Cc1ccc(-c2cnc(NC(=O)CCC(=O)N3CCCn4nc(C)cc43)cn2)cn1` [Compound 127, 4-(2-methyl-6,7-dihydropyrazolo[1,5-a]pyrimidin-4(5H)-yl)-N-(5-(6-methylpyridin-3-yl)pyrazin-2-yl)-4-oxobutanamide]: the half-inhibitory concentration (IC50) was below 1000 nM.

In the case of `Cc1cc2n(n1)CCCN2C(=O)CCC(=O)Nc1ccc(-c2nccs2)cc1` [Compound 25], the IC50 was below 100 nM.

With `Cc1cc2n(n1)CCCN2C(=O)CCC(=O)Nc1cnc(-c2cccnc2)c(C)n1` [Compound 125, N-(6-methyl-5-(pyridin-3-yl)pyrazin-2-yl)-4-(2-methyl-6,7-dihydropyrazolo[1,5-a]pyrimidin-4(5H)-yl)-4-oxobutanamide], the IC50 was above 10000 nM.

As to `Cc1cc2n(n1)CCCN2C(=O)CCC(=O)Nc1ccc(-c2ccccc2)cc1C` [Compound 53, 4-(2-methyl-6,7-dihydropyrazolo[1,5-a]pyrimidin-4(5H)-yl)-N-(3-methyl-[1,1′-biphenyl]-4-yl)-4-oxobutanamide], the 50% inhibitory concentration (IC50) was above 10000 nM.

`Cc1cc2n(n1)CCCN2C(=O)CCC(=O)Nc1ccc(-c2ccc(N)cc2)cc1` [Compound 71, N-(4′-amino-[1,1′-biphenyl]-4-yl)-4-(2-methyl-6,7-dihydropyrazolo[1,5-a]pyrimidin-4(5H)-yl)-4-oxobutanamide] yielded an IC50 below 100 nM.

`Cc1cncc(-c2ccc(NC(=O)CCC(=O)N3CC(C)Cn4nc(C)cc43)cn2)c1` (stereo not drawn) [Compound 144, 4-(2,6-dimethyl-6,7-dihydropyrazolo[1,5-a]pyrimidin-4(5H)-yl)-N-(5′-methyl-[2,3′-bipyridin]-5-yl)-4-oxobutanamide]: the 50% inhibitory concentration (IC50) is below 100 nM.

Compound `Cc1cc2n(n1)CCCN2C(=O)CCC(=O)Nc1ccc(-c2ccccn2)cn1` [Compound 41, N-([2,3′-bipyridin]-6′-yl)-4-(2-methyl-6,7-dihydropyrazolo[1,5-a]pyrimidin-4(5H)-yl)-4-oxobutanamide] gave an IC50 below 100 nM.

In the case of `Cc1cc2n(n1)CCCN2C(=O)CCC(=O)Nc1cc(-c2ccncc2)no1` [Compound 20, 4-{2-methyl-5H,6H,7H-pyrazolo[1,5-a]pyrimidin-4-yl}-4-oxo-N-[3-(pyridin-4-yl)-1,2-oxazol-5-yl]butanamide], the 50% inhibitory concentration (IC50) is above 10000 nM.

Consider `Cc1cncc(-c2cnc(NC(=O)CCC(=O)N3CCCn4nc(C)cc43)cn2)c1` [Compound 124, 4-(2-methyl-6,7-dihydropyrazolo[1,5-a]pyrimidin-4(5H)-yl)-N-(5-(5-methylpyridin-3-yl)pyrazin-2-yl)-4-oxobutanamide], for which the IC50 was below 100 nM.

`Cc1cc2n(n1)CCCN2C(=O)CCC(=O)Nc1ccc(-c2cnccn2)cn1` [Compound 50, 4-(2-methyl-6,7-dihydropyrazolo[1,5-a]pyrimidin-4(5H)-yl)-4-oxo-N-(5-(pyrazin-2-yl)pyridin-2-yl)butanamide] returned an IC50 below 100 nM.

With `Cc1cc2n(n1)CCCN2C(=O)CCC(=O)Nc1ccc(-c2ccccc2F)cc1` [Compound 64, N-(2′-fluoro-[1,1′-biphenyl]-4-yl)-4-(2-methyl-6,7-dihydropyrazolo[1,5-a]pyrimidin-4(5H)-yl)-4-oxobutanamide], the half-maximal inhibitory concentration (IC50) is below 100 nM.

`Cc1cc2n(n1)CCCN2C(=O)CCC(=O)Nc1cc(-c2ccc(Cl)c(Cl)c2)no1` [Compound 7, N-(3-(3,4-dichlorophenyl)isoxazol-5-yl)-4-(2-methyl-6,7-dihydropyrazolo[1,5-a]pyrimidin-4(5H)-yl)-4-oxobutanamide] had an IC50 above 10000 nM.
